From ChEMBL document CHEMBL1275572, “KPC-2-producing Enterobacter cloacae and pseudomonas putida coinfection in a liver transplant recipient” (2009)
Values after ≈ are worked out from the molar mass of the structure shown.

Legend:
Pseudomonas putida [1] = assay: Antimicrobial activity against Pseudomonas putida expressing beta-lactamase KPC-2 and SHV-12 obtained from criticall ill liver transplant recipient by broth microdilution method; type: functional
Enterobacter cloacae [2] = assay: Antimicrobial activity against Enterobacter cloacae expressing beta-lactamase KPC-2 and SHV-12 obtained from criticall ill liver transplant recipient by broth microdilution method; type: functional
Pseudomonas putida [3] = assay: Antimicrobial activity against Pseudomonas putida expressing beta-lactamase KPC-2 and SHV-12 obtained from criticall ill liver transplant recipient by broth microdilution method in presence of beta-lactamase inhibitor Tazobactam; type: functional
Enterobacter cloacae [4] = assay: Antimicrobial activity against Enterobacter cloacae expressing beta-lactamase KPC-2 and SHV-12 obtained from criticall ill liver transplant recipient by broth microdilution method in presence of beta-lactamase inhibitor Tazobactam; type: functional
Acinetobacter sp. = assay: Antimicrobial activity against Acinetobacter spp.; type: functional, organism-based

Description for Pseudomonas aeruginosa: Antimicrobial activity against Pseudomonas aeruginosa

Compound	MIC (Pseudomonas putida [1]) [µg/mL]	MIC (Enterobacter cloacae [2]) [µg/mL]	further results
CO/N=C(\C(=O)N[C@@H]1C(=O)N2C(C(=O)O)=C(CSc3nc(=O)c(O)nn3C)CS[C@H]12)c1csc(N)n1 [CEFTRIAXONE]	> 32	> 32	
GENTAMICIN	> 8	> 8	
NC[C@H]1O[C@H](O[C@H]2[C@H](O)[C@@H](O[C@H]3O[C@H](CO)[C@@H](O)[C@H](N)[C@H]3O)[C@H](N)C[C@@H]2N)[C@H](N)C[C@@H]1O [TOBRAMYCIN]	> 8	> 8	
NCC[C@H](O)C(=O)N[C@@H]1C[C@H](N)[C@@H](O[C@H]2O[C@H](CN)[C@@H](O)[C@H](O)[C@H]2O)[C@H](O)[C@H]1O[C@H]1O[C@H](CO)[C@@H](O)[C@H](N)[C@H]1O [AMIKACIN]	1 (≈ 1.71 µM)	16 (≈ 27.3 µM)	
C[C@@H](O)[C@H]1C(=O)N2C(C(=O)O)=C(SCCNC=N)C[C@H]12 [IMIPENEM ANHYDROUS]	> 4	> 4	
C[C@@H](O)[C@H]1C(=O)N2C(C(=O)O)=C(S[C@@H]3CN[C@H](C(=O)N(C)C)C3)[C@H](C)[C@H]12 [MEROPENEM]	> 4	> 4	
CCN1CCN(C(=O)N[C@@H](C(=O)N[C@@H]2C(=O)N3[C@@H]2SC(C)(C)[C@@H]3C(=O)O)c2ccccc2)C(=O)C1=O [PIPERACILLIN]			MIC (Pseudomonas putida [3]): > 128 µg/mL; MIC (Enterobacter cloacae [4]): > 128 µg/mL
CC(C)(O/N=C(\C(=O)N[C@@H]1C(=O)N2C(C(=O)[O-])=C(C[n+]3ccccc3)CS[C@H]12)c1csc(N)n1)C(=O)O [CEFTAZIDIME]	> 32	> 32	
C[C@H]1COc2c(N3CCN(C)CC3)c(F)cc3c(=O)c(C(=O)O)cn1c23.C[C@H]1COc2c(N3CCN(C)CC3)c(F)cc3c(=O)c(C(=O)O)cn1c23.O [LEVOFLOXACIN]	> 16	2	
C[C@@H](O)[C@H]1C(=O)N2C(C(=O)O)=C(S[C@@H]3CN[C@H](C(=O)Nc4cccc(C(=O)O)c4)C3)[C@H](C)[C@H]12	> 8	> 8	
COLISTIN	2	> 16	MIC (Pseudomonas aeruginosa): > 16 µg/mL; MIC (Acinetobacter sp.): > 16 µg/mL
CO/N=C(\C(=O)N[C@@H]1C(=O)N2C(C(=O)[O-])=C(C[N+]3(C)CCCC3)CS[C@H]12)c1csc(N)n1	> 32		
CO[C@@]1(NC(=O)Cc2cccs2)C(=O)N2C(C(=O)O)=C(COC(N)=O)CS[C@@H]21 [CEFOXITIN]	> 32	> 32	
